This is an account of results in patent US20250262298A1, “STING MODULATOR COMPOUNDS WITH SULFAMATE LINKAGES, AND METHODS OF MAKING AND USING” (TAKEDA PHARMACEUTICAL COMPANY LIMITED, priority 2018, published 2025).

One assay concerns the target Human STING (Homo sapiens (Human), UniProt Q86WV6, H232R). Nature of the assay: Human STING TR-FRET assay. Type of assay: binding. As to conditions: human STING residues 140-379 (H232R), 100 nM; fluorescein labeled ligand 100 nM; 60 minutes at rt. As to the method:
Human STING (accession number GB:BC047779) DNA encoding residues 140-379 (H232R) was cloned into pET28 as N-terminal HIS and C-terminal Avi tagged fusion protein, and a rTEV cleavage site between HIS tag and STING. The sequence was verified before recombinant protein expression using E. coli expression system.
For expression, STING expression vector was transformed into BL21(DE3) cells. The expression was induced by adding IPTG and expressing in 16° C. for 20 hours.
For purification, STING was purified by Nickel affinity resin (Thermo Scientific #25215), followed by TEV enzyme cleavage and Superdex 200 column (GE Healthcare #28-9893-35) purification. For site directed in vitro biotinylation, purified Avi-tagged STING protein was incubated with Biotin (SUPELCO #47868), ATP (SIGMA #A-7699) and BirA enzyme, followed by further purification through a Superdex 200 column (GE Healthcare #28-9893-35). Biotinylation was confirmed by Mass Spectrometry analysis.
40 nL of test compounds in DMSO were added to wells in a white, 384 well microtitre plate (Greiner 784075). 2 uL STING assay buffer (PBS and 0.01% BSA) containing fluorescein labeled ligand (c[G(2′,5′)p-2′-Fluo-AHC-A(3′,5′)p]-Biolog C 195, 100 nM final) and Tb labeled Streptavidin (Streptavidin-Tb cryptate-CisBio 610SATLB) were added. Then 2 uL STING assay buffer containing STING protein (100 nM final) was added and the mixture was incubated at rt for 60 minutes. The plates were then read on a BMG PheraStar Plus reader (LanthaScreen module).
For the assay method described above, test compound percent inhibition, at various concentrations, was calculated relative to untreated and DMSO only treated samples. Compound concentration versus percent inhibition curves were fitted to generate IC50 values. One skilled in the art will appreciate that the values generated either as percentage inhibition at a single concentration or IC50 values are subject to experimental variation.

The subject of assay [1] is THP1-Dual cells (Lucia luciferase under ISG54 promoter). Nature of the assay: THP-1 Dual Lucia reporter gene assay. As to conditions: Homo sapiens, THP1-Dual, 20 h, luminescence signal induction, 20 hours at 37° C. Type of assay: cell-based, human. On the procedure:
THP1-Dual™ cells (InvivoGen #thpd-nfis) were derived from the human THP-1 monocyte cell line by stable integration of the Lucia luciferase gene, a secreted luciferase reporter gene, under the control of an ISG54 (interferon-stimulated gene) minimal promoter in conjunction with five interferon (IFN)-stimulated response elements. On the day of experiment, the cells were plated to a black, 384-well plate (Corning 356697) at 7500 cells/25 μl per well density in growth media (RPMI 1640, 2 mM L-glutamine, 25 mM HEPES, 10% heat-inactivated fetal bovine serum, 100 μg/mL Normocin™, 50 U/mL-50 μg/mL Pen-Strep, 10 μg/mL of blasticidin, and 100 μg/mL of Zeocin). The cell plates were dosed with 62.5 nL of the testing compounds, and then incubated at 37° C. for 20 hours. At the end of the incubation, 15 μL/well of the QUANTI-Luc™ (InvivoGen #rep-qlc1) were added, and luminescence was measured immediately using the LeadSeeker.
For the assay method described above, test compound percent luminescence signal induction, at various concentrations, was calculated relative to untreated and DMSO only treated samples. Compound concentration versus percent signal induction curves were fitted to generate EC50 values. One skilled in the art will appreciate that the values generated as EC50 values are subject to experimental variation.
Background: A reporter such as luciferase makes a cellular process visible.

The term IC50 denotes the point on the concentration scale where inhibition reaches its midpoint. Higher therefore signals weaker potency. As a reminder, the EC50 is the midpoint of the concentration-response curve. A high value points to a less potent agent.

SMILES strings stand for the structures. Bounds are passed on as bounds.

Human STING, sequence (Q86WV6 140-379 H232R): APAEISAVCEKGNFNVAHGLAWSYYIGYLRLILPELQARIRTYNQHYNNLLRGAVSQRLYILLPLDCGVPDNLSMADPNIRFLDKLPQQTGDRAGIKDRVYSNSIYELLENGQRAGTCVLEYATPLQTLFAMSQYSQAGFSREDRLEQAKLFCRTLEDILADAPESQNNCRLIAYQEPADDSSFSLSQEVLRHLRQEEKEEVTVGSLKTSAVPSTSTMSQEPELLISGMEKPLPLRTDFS

In turn, `Nc1nc2c(ncn2[C@@H]2O[C@@H]3CNS(=O)(=O)O[C@H]4C[C@H](n5cnc6c(N)ncnc65)O[C@@H]4COP(=O)(O)O[C@@H]2C3)c(=O)[nH]1` [Compound I-9, 2-amino-9-[(5S,7R,8R,12aR,14R,15aS)-14-(6-amino-9H-purin-9-yl)-10-hydroxy-2,2,10-trioxidooctahydro-3H,12H-5,8-methanofuro[3,2-l][1,3,6,11,10,9,2]tetraoxathiazaphosphacyclotetradecin-7-yl]-1,9-dihydro-6H-purin-6-one] came in with a half-inhibitory concentration (IC50) against Human STING of 10 to 100 µM. Further, in assay [1], the EC50 was greater than 25 µM.
For `Nc1nc2c(ncn2[C@@H]2O[C@@H]3COP(=O)(O)O[C@H]4[C@@H](F)[C@H](n5cnc6c(N)ncnc65)O[C@@H]4CNS(=O)(=O)O[C@@H]2C3)c(=O)[nH]1` [Compound I-18, 2-amino-9-[(5S,7R,8R,12aR,14R,15R,15aR)-14-(6-amino-9H-purin-9-yl)-15-fluoro-2-hydroxy-2,10,10-trioxidodecahydro-5,8-methanofuro[2,3-m][1,3,6,9,10,11,2]tetraoxathiazaphosphacyclotetradecin-7-yl]-1,9-dihydro-6H-purin-6-one], on Human STING, the half-inhibitory concentration (IC50) was less than 1 µM. The 50% effective concentration (EC50) in assay [1] was in the range of 1 to 10 µM.
